# Measurements as given in patent US20140005163A1 (NOVARTIS AG, priority 2010, published 2014).
# What was measured:
# [1] = target: T1, mTOR (Homo sapiens, UniProt P42345); test: Biochemical assay for m-TOR by TR-FRET; details: 8 μM ATP, 400 nM GFP-4EBP1, 0.5 nM mTOR
# T1 construct: purchased Invitrogen Corporation (Carlsbad/CA, USA) PV4753
# Method in brief: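 mTOR (0.5 nM) was incubated at rt with ATP (8 μM final) and GFP-4EBP1 (400 nM final) in 50 mM HEPES pH 7.5, 10 mM MnCl2, 50 mM NaCl, 1 mM EGTA, 1 mM DTT. EDTA stop with Tb3+-anti-p4EBP1 [pThr46] antibody (0.5 nM); TR-FRET read 15 min later.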
# [2] = system: PKB Ser473 phosphorylation in Rat1-myr-HA-p110 delta cells; test: Reverse protein array assay, PKB Ser473 phosphorylation in Rat1-myr-p110 delta cells; type: cell-based; details: read-out: p-PKB IC50
# Method in brief: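 Lysates were arrayed at four dilutions, and phospho-PKB Ser473 was quantified by relative fluorescence signal. They came from Rat1-myr-HA-p110 alpha, beta or delta cells exposed for 30 min at 37 °C to an 8-point compound series with 0.2% DMSO constant.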
# [3] = system: S6 Ribosomal Protein phosphorylation Ser235/236 in TSC1 null mouse embryo fibroblast (MEF) cells; test: Reverse protein array assay, S6 Ribosomal Protein phosphorylation Ser235/236 in TSC1 null MEF cells; type: cell-based; details: 1 h, pS6 ribosomal protein Ser235/236, 60 minutes incubation, read-out: p-S6 IC50
# Method in brief: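 TSC1−/− MEFs, seeded and held ≥20 h at 37 °C/5% CO2, were exposed to 8-step serial compound dilutions (0.02% DMSO final; DMSO vehicle control) for 60 min at 37 °C. Cells were then lysed on ice for 10 min and lysates spotted onto reverse protein array chips.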
# T1 sequence (P42345 1360-2549 limits assumed): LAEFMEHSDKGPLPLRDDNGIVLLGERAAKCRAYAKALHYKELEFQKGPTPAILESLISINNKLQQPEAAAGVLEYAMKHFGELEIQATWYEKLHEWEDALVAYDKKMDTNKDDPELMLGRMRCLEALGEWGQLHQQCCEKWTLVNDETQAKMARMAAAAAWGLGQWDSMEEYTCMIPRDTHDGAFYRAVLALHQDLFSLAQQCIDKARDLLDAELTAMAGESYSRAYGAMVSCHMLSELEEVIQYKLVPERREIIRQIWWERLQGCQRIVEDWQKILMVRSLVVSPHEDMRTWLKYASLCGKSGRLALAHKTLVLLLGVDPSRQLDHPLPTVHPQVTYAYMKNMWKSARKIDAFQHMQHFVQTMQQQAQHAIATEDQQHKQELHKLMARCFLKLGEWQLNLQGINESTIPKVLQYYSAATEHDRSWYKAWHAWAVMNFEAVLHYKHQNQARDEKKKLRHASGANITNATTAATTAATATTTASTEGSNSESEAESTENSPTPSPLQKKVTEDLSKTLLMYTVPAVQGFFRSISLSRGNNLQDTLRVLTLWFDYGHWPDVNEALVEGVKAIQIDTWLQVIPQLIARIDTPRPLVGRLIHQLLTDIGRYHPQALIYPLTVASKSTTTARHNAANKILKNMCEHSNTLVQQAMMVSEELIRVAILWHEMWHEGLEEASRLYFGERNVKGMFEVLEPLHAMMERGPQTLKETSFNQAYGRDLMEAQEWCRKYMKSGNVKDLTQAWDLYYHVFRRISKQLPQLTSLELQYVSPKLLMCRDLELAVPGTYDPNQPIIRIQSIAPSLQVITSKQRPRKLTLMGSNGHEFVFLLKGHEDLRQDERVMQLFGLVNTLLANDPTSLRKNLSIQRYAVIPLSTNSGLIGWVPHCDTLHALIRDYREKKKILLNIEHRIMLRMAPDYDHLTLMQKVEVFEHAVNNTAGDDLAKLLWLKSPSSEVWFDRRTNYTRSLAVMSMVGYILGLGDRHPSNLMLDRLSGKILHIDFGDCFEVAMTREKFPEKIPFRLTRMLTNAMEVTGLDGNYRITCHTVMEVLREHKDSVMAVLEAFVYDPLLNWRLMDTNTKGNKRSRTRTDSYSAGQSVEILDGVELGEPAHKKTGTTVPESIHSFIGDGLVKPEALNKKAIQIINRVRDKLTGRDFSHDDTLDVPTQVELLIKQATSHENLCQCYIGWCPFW
IC50 [1],IC50 [2],Compound,IC50 [3]
87 nM,131 nM,"COc1ccc(-c2ccc3ncc4c(c3c2)n(-c2cc(C)nn2C)c(=O)n4C)cc1OC [Example 1.4, 8-(3,4-Dimethoxy-phenyl)-1-(2,5-dimethyl-2H-pyrazol-3-yl)-3-methyl-1,3-dihydro-imidazo[4,5-c]quinolin-2-one]",
61 nM,50 nM,"COc1ccc(-c2ccc3ncc4c(c3c2)n(-c2cn(C(C)C)nc2C)c(=O)n4C)cc1OC [Example 1.5, 8-(3,4-Dimethoxy-phenyl)-1-(1-isopropyl-3-methyl-1H-pyrazol-4-yl)-3-methyl-1,3-dihydro-imidazo[4,5-c]quinolin-2-one]",< 5 nM
10 nM,30 nM,"CCn1cc(-n2c(=O)n(C)c3cnc4ccc(-c5ccc(OC)c(OC)c5)cc4c32)c(C)n1 [Example 1.6, 8-(3,4-Dimethoxy-phenyl)-1-(1-ethyl-3-methyl-1H-pyrazol-4-yl)-3-methyl-1,3-dihydro-imidazo[4,5-c]quinolin-2-one]",< 5 nM
9 nM,36 nM,"COc1ccc(-c2ccc3ncc4c(c3c2)n(-c2cn(C)nc2C)c(=O)n4C)cn1 [Example 2.5, 1-(1,3-Dimethyl-1H-pyrazol-4-yl)-8-(6-methoxy-pyridin-3-yl)-3-methyl-1,3-dihydro-imidazo[4,5-c]quinolin-2-one]",10 nM
13 nM,62 nM,"CCn1cc(-n2c(=O)n(C)c3cnc4ccc(-c5ccc(OC)nc5)cc4c32)c(C)n1 [Example 2.7, 1-(1-Ethyl-3-methyl-1H-pyrazol-4-yl)-8-(6-methoxy-pyridin-3-yl)-3-methyl-1,3-dihydro-imidazo[4,5-c]quinolin-2-one]",6 nM
651 nM,927 nM,"CCOc1ccc(-c2ccc3ncc4c(c3c2)n(-c2c(C)nn(C)c2C)c(=O)n4C)cn1 [Example 3.3, 8-(6-Ethoxy-pyridin-3-yl)-3-methyl-1-(1,3,5-trimethyl-1H-pyrazol-4-yl)-1,3-dihydro-imidazo[4,5-c]quinolin-2-one]",255 nM
23 nM,186 nM,"CCOc1ccc(-c2ccc3ncc4c(c3c2)n(-c2cn(C(C)C)nc2C)c(=O)n4C)cn1 [Example 3.7, 8-(6-Ethoxy-pyridin-3-yl)-1-(1-isopropyl-3-methyl-1H-pyrazol-4-yl)-3-methyl-1,3-dihydro-imidazo[4,5-c]quinolin-2-one]",30 nM
11 nM,50 nM,"CCOc1ccc(-c2ccc3ncc4c(c3c2)n(-c2cn(CC(=O)N(C)C)nc2C)c(=O)n4C)cn1 [Example 3.9, 2-{4-[8-(6-Ethoxy-pyridin-3-yl)-3-methyl-2-oxo-2,3-dihydro-imidazo[4,5-c]quinolin-1-yl]-3-methyl-pyrazol-1-yl}-N,N-dimethyl-acetamide]",5 nM
22 nM,38 nM,"Cc1nn(C)cc1-n1c(=O)n(C)c2cnc3ccc(-c4ccc(N(C)C)nc4)cc3c21 [Example 4.5, 8-(6-Dimethylamino-pyridin-3-yl)-1-(1,3-dimethyl-1H-pyrazol-4-yl)-3-methyl-1,3-dihydro-imidazo[4,5-c]quinolin-2-one]",13 nM
42 nM,205 nM,"Cc1cc(-n2c(=O)n(C)c3cnc4ccc(-c5ccc(N(C)C)nc5)cc4c32)n(C)n1 [Example 4.6, 8-(6-Dimethylamino-pyridin-3-yl)-1-(2,5-dimethyl-2H-pyrazol-3-yl)-3-methyl-1,3-dihydro-imidazo[4,5-c]quinolin-2-one]",
18 nM,18 nM,"Cc1nn(C)cc1-n1c(=O)n(C)c2cnc3ccc(-c4ccc(N5CCC5)nc4)cc3c21 [Example 5.1, 8-(6-Azetidin-1-yl-pyridin-3-yl)-1-(1,3-dimethyl-1H-pyrazol-4-yl)-3-methyl-1,3-dihydro-imidazo[4,5-c]quinolin-2-one]",10 nM
6 nM,74 nM,"Cc1nn(C)cc1-n1c(=O)n(C)c2cnc3ccc(-c4ccc(C(N)=O)nc4)cc3c21 [Example 14, 5-[1-(1,3-Dimethyl-1H-pyrazol-4-yl)-3-methyl-2-oxo-2,3-dihydro-1H-imidazo[4,5-c]quinolin-8-yl]-pyridine-2-carboxylic acid amide]",123 nM
335 nM,,"CNC(=O)c1ccc(-c2ccc3ncc4c(c3c2)n(-c2c(C)nn(C)c2C)c(=O)n4C)cn1 [Example 15.2, 5-[3-Methyl-2-oxo-1-(1,3,5-trimethyl-1H-pyrazo1-4-yl)-2,3-dihydro-1H-imidazo[4,5-c]quinolin-8-yl]-pyridine-2-carboxylic acid methylamide]",
666 nM,1510 nM,"Cc1nn(C)c(C)c1-n1c(=O)n(C)c2cnc3ccc(-c4ccc(CO)nc4)cc3c21 [Example 16.4, 8-(6-Hydroxymethyl-pyridin-3-yl)-3-methyl-1-(1,3,5-trimethyl-1H-pyrazol-4-yl)-1,3-dihydro-imidazo[4,5-c]quinolin-2-one]",
6 nM,28 nM,"Cn1cc(-n2c(=O)n(C)c3cnc4ccc(-c5ccc(CO)nc5)cc4c32)c(Cl)n1 [Example 16.5, 1-(3-chloro-1-methyl-1H-pyrazol-4-yl)-8-(6-hydroxymethyl-pyridin-3-yl)-3-methyl-1,3-dihydro-imidazo[4,5-c]quinolin-2-one]",13 nM
201 nM,906 nM,"Cn1nccc1-n1c(=O)n(C)c2cnc3ccc(-c4ccc(NCCO)nc4)cc3c21 [Example 21.1, 8-[6-(2-Hydroxy-ethylamino)-pyridin-3-yl]-3-methyl-1-(2-methyl-2H-pyrazol-3-yl)-1,3-dihydro-imidazo[4,5-c]quinolin-2-one]",
37 nM,170 nM,"Cc1cncc(-c2ccc3ncc4c(c3c2)n(-c2cn(C)nc2C)c(=O)n4C)c1 [Example 24, 1-(1,3-Dimethyl-1H-pyrazol-4-yl)-3-methyl-8-(5-methyl-pyridin-3-yl)-1,3-dihydro-imidazo[4,5-c]quinolin-2-one]",9 nM
363 nM,508 nM,"CCOc1ccc(-c2ccc3ncc4c(c3c2)n(-c2c(C)nn(C)c2C)c(=O)n4C)cc1OCC [Example 27.2, 8-(3,4-Diethoxy-phenyl)-3-methyl-1-(1,3,5-trimethyl-1H-pyrazol-4-yl)-1,3-dihydro-imidazo[4,5-c]quinolin-2-one]",234 nM
26 nM,59 nM,"CCOc1ccc(-c2ccc3ncc4c(c3c2)n(-c2cn(CC)nc2C)c(=O)n4C)cc1OC [Example 29.1, 8-(4-Ethoxy-3-methoxy-phenyl)-1-(1-ethyl-3-methyl-1H-pyrazol-4-yl)-3-methyl-1,3-dihydro-imidazo[4,5-c]quinolin-2-one]",9 nM
6 nM,19 nM,"Cc1nn(C)cc1-n1c(=O)n(C)c2cnc3ccc(-c4cnc5ccccc5c4)cc3c21 [Example 38, 1-(1,3-Dimethyl-1H-pyrazol-4-yl)-3-methyl-8-quinolin-3-yl-1,3-dihydro-imidazo[4,5-c]quinolin-2-one]",3 nM
563 nM,134 nM,"Cc1nn(C)cc1-n1c(=O)n(C)c2cnc3ccc(-c4cccc(S(=O)(=O)N5CCCC5)c4)cc3c21 [Example 44, 1-(1,3-Dimethyl-1H-pyrazol-4-yl)-3-methyl-8-[3-(pyrrolidine-1-sulfonyl)-phenyl]-1,3-dihydro-imidazo[4,5-c]quinolin-2-one]",80 nM
24 nM,203 nM,"CCn1cc(-n2c(=O)n(C)c3cnc4ccc(-c5cncc(N)c5)cc4c32)c(C)n1 [Example 45.2, 8-(5-Amino-pyridin-3-yl)-1-(1-ethyl-3-methyl-1H-pyrazol-4-yl)-3-methyl-1,3-dihydro-imidazo[4,5-c]quinolin-2-one]",72 nM
376 nM,,"Cc1nn(C)cc1-n1c(=O)n(C)c2cnc3ccc(-c4ccnc(OC(C)C)c4)cc3c21 [Example 92, 1-(1,3-Dimethyl-1H-pyrazol-4-yl)-8-(2-isopropoxy-pyridin-4-yl)-3-methyl-1,3-dihydro-imidazo[4,5-c]quinolin-2-one]",75 nM
95 nM,162 nM,"COCc1ccc(-c2ccc3ncc4c(c3c2)n(-c2cn(C(C)C)nc2C)c(=O)n4C)cn1 [Example 105, 1-(1-Isopropyl-3-methyl-1H-pyrazol-4-yl)-8-(6-methoxymethyl-pyridin-3-yl)-3-methyl-1,3-dihydro-imidazo[4,5-c]quinolin-2-one]",
149 nM,869 nM,"Cc1nn(C)c(C)c1-n1c(=O)n(C)c2cnc3ccc(-c4cnc(N)c(CO)c4)cc3c21 [Example 169.2, 8-(6-Amino-5-hydroxymethyl-pyridin-3-yl)-3-methyl-1-(1,3,5-trimethyl-1H-pyrazol-4-yl)-1,3-dihydro-imidazo[4,5-c]quinolin-2-one]",
,479 nM,"CCNc1ncc(-c2ccc3ncc4c(c3c2)n(-c2c(C)nn(C)c2C)c(=O)n4C)cc1COC [Example 206.2, 8-(6-Ethylamino-5-methoxymethyl-pyridin-3-yl)-3-methyl-1-(1,3,5-trimethyl-1H-pyrazol-4-yl)-1,3-dihydro-imidazo[4,5-c]quinolin-2-one]",77 nM
